Results as given in patent US6277871A, “Inhibitors of protein isoprenyl transferases” (Abbott Laboratories, priority 1999, dated 2001).

Target: T1, Rat brain protein farnesyltransferase (Rattus norvegicus, UniProt Q02293+Q04631)
T1 construct: Rat brain protein farnesyltransferase activity is measured; from tissue; host or cells: rat brain
Assay: in vitro inhibition of protein farnesyltransferase (Amersham scintillation proximity assay, biotin-K Ras B fragment substrate)
Format: biochemical
Conditions: 1 × 10^-7 M; protein farnesyltransferase; compared to uninhibited control; read-out: % inhibition at 1 × 10^-7 M
Description: In addition, in vitro inhibition of protein farnesyltransferase may be measured by the following procedure. […] The enzyme is purified according to Reiss, Y., et al., Cell, 62: 81-88 (1990), hereby incorporated by reference, utilizing steps one through three. […]
The % inhibition of protein farnesyltransferase was determined for representative compounds of the invention.

T1 sequence (Q02293 whole entry, one chain of several): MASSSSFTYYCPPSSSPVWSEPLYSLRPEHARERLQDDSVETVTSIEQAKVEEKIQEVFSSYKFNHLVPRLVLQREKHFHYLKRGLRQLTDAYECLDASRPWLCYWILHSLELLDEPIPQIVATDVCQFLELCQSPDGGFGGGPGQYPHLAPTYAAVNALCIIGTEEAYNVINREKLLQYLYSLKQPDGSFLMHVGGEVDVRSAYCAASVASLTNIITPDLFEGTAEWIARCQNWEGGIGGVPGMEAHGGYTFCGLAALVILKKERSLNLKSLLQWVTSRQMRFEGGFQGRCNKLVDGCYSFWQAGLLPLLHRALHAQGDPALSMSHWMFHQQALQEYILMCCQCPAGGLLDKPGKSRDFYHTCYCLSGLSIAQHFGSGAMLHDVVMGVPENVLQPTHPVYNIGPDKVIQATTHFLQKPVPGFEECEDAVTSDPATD

Row | SMILES | inhibition at 0.1 µM [%]
1 | CSCC[C@H](NC(=O)C1=C(c2ccccc2C)CN(C(=O)OCCCC2CCCCC2)CC1)C(=O)O [Example 1, N-4-[1-(3-cyclohexylpropyloxycarbonyl)-3-(2-methylphenyl)-1,2,5,6-tetrahydroisonicotinyl]methionine] | 100
2 | CSCC[C@H](NC(=O)C1=C(c2ccccc2C)CN(C(=O)C=Cc2cncs2)CC1)C(=O)O [Example 2, N-4-[1-(3-[5-thiazolyl]acryloyl)-3-(2-methylphenyl)-1,2,5,6-tetrahydroisonicotinyl]methionine] | 43
3 | CSCC[C@H](NC(=O)C1=C(c2ccccc2C)CN(C(=O)N(Cc2ccccc2)Cc2cncs2)CC1)C(=O)O [Example 3, N-4-[1-(N'-benzyl-5-thiazolmethylaminocarbonyl)-3-(2-methylphenyl)-1,2,5,6-tetrahydroisonicotinyl]methionine] | 100
4 | CSCC[C@H](NC(=O)C1=C(c2ccccc2C)CN(CCCc2ccccc2)CC1)C(=O)O [Example 4, N-[N'-(3-phenylpropyl)-3-(2-methylphenyl)-1,2,5,6-tetrahydroisonicotinyl]methionine] | 55

Same assay, conditions: read-out: % inhibition at 1 × 10^-7 M

Row | SMILES | inhibition at 0.1 µM [%]
5 | CSCC[C@H](NC(=O)C1=C(c2ccccc2C)CN(C(=O)Cc2cccnc2)CC1)C(=O)O [Example 5, N-[N'-(3-pyridylacetyl)-3-(2-methylphenyl)-1,2,5,6-tetrahydroisonicotinyl]methionine] | 94
6 | CSCC[C@H](NC(=O)C1=C(c2ccccc2C)CN(S(=O)(=O)N(Cc2ccccc2)Cc2cncs2)CC1)C(=O)O [Example 6, N-4-[1-(N'-benzyl-5-thiazolmethylaminosulfamoyl)-3-(2-methylphenyl)-1,2,5,6-tetrahydroisonicotinyl]methionine] | 90
